Entries after “also recorded” stand apart in the source; their conditions may differ.
Assays:
[1] = test system: Collagen-induced arthritis (CIA) in DBA/1 mice; experiment: Collagen-induced arthritis (CIA) in DBA/1 mice; format: in vivo; conditions: for severity of arthritis compared with control mice: single drug, oral daily for 10 consecutive days, ROFLUMILAST 1 mg/kg, PUMAFENTRINE hydrochloride 3 mg/kg, significant on days 35 and 39
Experimental: Collagen-induced arthritis (CIA) in DBA/1 mice: Mice were immunized intradermally with 200 μg/mouse of type II (CII) bovine collagen in Freund's complete adjuvant (FCA) and challenged intraperitoneally 21 days later with 200 μg/mouse of CII in saline. The mice were then administered orally either with 1 mg/kg/day of 3-Cyclopropylmethoxy-4-difluoromethoxy-N-(3,5-dichloropyrid-4-yl)-benzamide [INN: ROFLUMILAST], 3 mg/kg/day of (−)-cis-9-ethoxy-8-methoxy-2-methyl-1,2,3,4,4a,10b-hexahydro-6-(4-diisopropylaminocarbonylphenyl)-benzo[c][1,6]naphthyridine hydrochloride [INN: PUMAFENTRINE hydrochloride], 1 mg/kg/day of METHOTREXATE, or with combinations of METHOTREXATE and the PDE inhibitors for 10 consecutive days, starting 2 days after challenge injection. Control mice received either METHOTREXATE alone (1 mg/kg/day) or the vehicle only.
DBA/1 mice were obtained from Harlan Olac (Bicester, UK) and used 8 weeks old. CIA was induced as described previously (Ruchatz, H., et al., J Immunol. 1998, 160(11):5654-60). Briefly, mice were immunised by intradermal injection of 200 μg of acidified type II collagen (Sigma, Poole UK) emulsified in Freund's Complete adjuvant (FCA, Difco, Detroit, Mich., USA). Collagen (200 μg in PBS) was injected intraperitoneally on day 21 (challenge). Mice were individually ear marked for identification. They were monitored daily and scored every other day for signs of arthritis as follows: 0=normal, 1=erythema, 2=erythema plus swelling, 3=extension/loss of function, and total score=sum of four limbs. Paw thickness was measured with a dial-calliper (Kroeplin, Munich, Germany). […] (3 mg/kg, calculated for PUMAFENTRINE), METHOTREXATE (1 mg/kg), or combinations were administered orally daily by a gavage tube for 10 consecutive days. […] Treatment was withdrawn on day 33 and the mice monitored for a further 8 days. Influence of drug treatments on mean clinical index, arthritic paws and paw thickness were analysed by one-way ANOVA at days 31, 35, and 39. Between group differences in incidence of arthritis were analysed by chi-square test.

[2] = test system: rheumatoid arthritis patients unresponsive to METHOTREXATE alone; conditions: combination with METHOTREXATE; cited from earlier work
[3] = test system: rheumatoid arthritis patients with active disease despite METHOTREXATE treatment; conditions: in combination with a fixed low-dose (7.5 mg per week) of METHOTREXATE; small number of patients; cited from earlier work

CN(Cc1cnc2nc(N)nc(N)c2n1)c1ccc(C(=O)N[C@@H](CCC(=O)O)C(=O)O)cc1 [METHOTREXATE, N-(p{[(2,4-diamino-6-pteridinyl)methyl]methylamino}benzoyl)-L-(+)-glutamic acid]
clinical improvement compared with control mice ([1]; METHOTREXATE alone 1 mg/kg/day, oral, 10 days): failed to produce a significant clinical improvement; also recorded: failed to demonstrate any clinical improvement

CCOc1cc2c(cc1OC)C(c1ccc(C(=O)N(C(C)C)C(C)C)cc1)=N[C@H]1CCN(C)C[C@@H]21.Cl [PUMAFENTRINE hydrochloride, (−)-cis-9-ethoxy-8-methoxy-2-methyl-1,2,3,4,4a,10b-hexahydro-6-(4-diisopropylaminocarbonylphenyl)-benzo[c][1,6]naphthyridine hydrochloride]
severity of arthritis compared with control mice ([1]; hydrochloride): effective in reducing the severity of arthritis; also recorded: significantly less severe disease

O=C(Nc1c(Cl)cncc1Cl)c1ccc(OC(F)F)c(OCC2CC2)c1 [ROFLUMILAST, 3-Cyclopropylmethoxy-4-difluoromethoxy-N-(3,5-dichloropyrid-4-yl)-benzamide]
severity of arthritis compared with control mice [1]: effective in reducing the severity of arthritis; also recorded: significantly less severe disease

ETANERCEPT
efficacy in rheumatoid arthritis [2]: effective

INFLIXIMAB: chimeric human-murine monoclonal antibody, a specific inhibitor of tumour necrosis factor alpha
degree and duration of efficacy [3]: enhanced degree and duration of efficacy

From patent publication US20070270441A1, “Combination” (Altana Pharma AG, priority 2001, published 2007)
